One data set can be described thus: Acute toxicity (LD50). Particulars: in vivo.
The nature of data set [1]: Hypotensive action, arterial blood pressure in anesthetized dogs. Particulars: cumulative, anesthetized dog. Type of data set: in vivo, Mongrel dogs. On the procedure: Mongrel dogs of both sexes weighing 9.7 - 19.0 kg were anesthetized with pentobarbital-Na (30 mg/kg, i.v.) and fixed on their back. Anesthesia was maintained by continuous intravenous infusion of pentobarbital-Na at a rate of 4 mg/kg/hour. After the vinyl catheter was inserted in the left femoral vein, heparin sodium, 1000 U/kg, was intravenously injected in order to prevent blood coagulation. Arterial blood pressure was measured from the left femoral artery with a pressure transducer (Nihon Kohden, RP-3). Test drugs were dissolved in 0.9% physiological saline solution and then intravenously administered with the cumulative method at intervals of 5 - 10 minutes.

For a further data set, the system named is β-adrenergic nerves. The data set is described as follows: Antagonistic activity against isoproterenol (β-adrenergic nerves blocking activity), anesthetized dogs. Type of data set: in vivo, Mongrel dogs. Particulars: Canis lupus familiaris, iv, isoproterenol 0.3 μg/kg, dog; for inhibition at 0.0001 mg/kg: 0.1 μg/kg i.v.; for inhibition at 0.001 mg/kg: 1.0 μg/kg i.v.; for inhibition at 0.01 mg/kg: 10 μg/kg i.v.; for inhibition at 0.1 mg/kg: 100 μg/kg i.v. Here is the method: For example, the antagonistic activity against isoproterenol (as an indication of β-adrenergic nerves blocking activity) of the 3,4-dihydrocarbostyril derivatives of the present invention was measured according to a method as described in R. D. Robson and H. R. Kaplan, "J. Pharmacol. Exp. Therap.," Vol. 175, page 157 (1970) as follows:
Mongrel dogs of both sexes weighing 9.7 - 19.0 kg were anesthetized with pentobarbital-Na (30 mg/kg, i.v.) and fixed on their back. Anesthesia was maintained by continuous intravenous infusion of pentobarbital-Na at a rate of 4 mg/kg/hour.
Arterial blood pressure was measured from the left femoral artery with a pressure transducer (Nihon Kohden, RP-3). The left femoral vein was cannulated for i.v. injection of drugs. Heart rate was measured with a tachometer (San-ei, type 2130) treggered by the R wave of ECG (Lead II). Blood pressure and heart rate were simultaneously recorded on an ink-writing recorder (San-ei, type 145).
Test drugs were cumulatively injected at intervals of 10 minutes after reproducibility test on the positive chronotropic and hypotensive actions of a submaximal dose of 0.3 μg/kg of isoproterenol. At the time when responses of blood pressure and heart rate to these test drugs were stabilized, at about 3 minutes after injection, isoproterenol 0.3 μg/kg was injected again. Their antagonistic activities were determined from difference between responses to isoproterenol before and after administration of the test drugs and expressed as % inhibition.

[2] abbreviates: blood pressure, read-out: Antagonistic Activity against Isoproterenol (% Inhibition of changes in BP).
[3] abbreviates: heart rate, read-out: Antagonistic Activity against Isoproterenol (% Inhibition of changes in HR).

The source of these data is patent US4072683A, “3,4-Dihydrocarbostyril derivatives” (Otsuka Pharmaceutical Co., Ltd., priority 1974, dated 1978).

The term LD50 denotes the dose expected to kill half of the subjects tested. Higher therefore signals a less toxic substance. For orientation: inhibition means the relative decrease from the control value, in per cent.

The structures appear in SMILES notation. Read-outs that look alike come from different tables or passages of the source.

For the molecule `CC(C)(C)NCC(O)COc1ccc(OCc2ccccc2)c2c1CCC(=O)N2` (centres unmarked) [drawing 20], the LD50 in the data set “Acute toxicity (LD50)” (iv) amounted to 80 mg/kg; in “Acute toxicity (LD50)” (po), 1150 mg/kg.

On to `CC(C)(C)NCC(O)COc1ccc(O)c2c1CCC(=O)N2` (centres unmarked) [drawing 18], for which the LD50 in the data set “Acute toxicity (LD50)” (iv) was determined as 94 mg/kg; in “Acute toxicity (LD50)” (po) it was 1380 mg/kg.

`CC(C)(C)NCC(O)COc1ccc(O)c2c1CCC(=O)N2` (centres unmarked) [drawing 15]: the “Hypotensive Action (Blood Pressure mmHg)” value in data set [1] (0.1 μg/kg i.v.) was -1.6 mmHg; in data set [1] (1.0 μg/kg i.v.) it was -5.4 mmHg; in data set [1] (10 μg/kg i.v.) it was -11.8 mmHg; in data set [1] (100 μg/kg i.v.) it was -30.6 mmHg.

In the case of `COc1ccc(OCC(O)CNC(C)(C)C)c2c1NC(=O)CC2` (centres unmarked) [drawing 19], the LD50 in “Acute toxicity (LD50)” (iv) amounted to 83 mg/kg; in “Acute toxicity (LD50)” (po) it was 1210 mg/kg.

As to `COc1ccc(OCC(O)CNC(C)(C)C)c2c1NC(=O)CC2` (centres unmarked) [drawing 13], in the data set on β-adrenergic nerves (setting [2]), the inhibition at 0.0001 mg/kg was 40.6%, the inhibition at 0.001 mg/kg is 54.4%, the inhibition at 0.01 mg/kg is 77.1% and the inhibition at 0.1 mg/kg amounted to 82.2%. Moreover, in the data set with β-adrenergic nerves (setting [3]), the inhibition at 0.0001 mg/kg turned out to be 7%, the inhibition at 0.01 mg/kg amounted to 39.8% and the inhibition at 0.1 mg/kg is 80.5%.

As for `CC(C)(C)NCC(O)COc1ccc(OCc2ccccc2)c2c1CCC(=O)N2` (centres unmarked) [drawing 17], the “Hypotensive Action (Blood Pressure mmHg)” value in data set [1] (0.1 μg/kg i.v.) is given as -1.0 mmHg; in data set [1] (1.0 μg/kg i.v.), -4.5 mmHg; in data set [1] (10 μg/kg i.v.), -10.5 mmHg; in data set [1] (100 μg/kg i.v.), -16.0 mmHg.

Take `CC(C)(C)NCC(O)COc1ccc(OCc2ccccc2)c2c1CCC(=O)N2` (centres unmarked) [drawing 14]: in the data set with β-adrenergic nerves (setting [2]), the inhibition at 0.0001 mg/kg was 20%, the inhibition at 0.001 mg/kg came out at 10.9%, the inhibition at 0.01 mg/kg worked out at 12.6% and the inhibition at 0.1 mg/kg is 8.4%. For the same molecule, in the data set with β-adrenergic nerves (setting [3]), the inhibition at 0.0001 mg/kg was 13.5%, the inhibition at 0.001 mg/kg turned out to be 13.5%, the inhibition at 0.01 mg/kg amounted to 21.4% and the inhibition at 0.1 mg/kg was found to be 65.4%.

Turning to `CC(C)(C)NCC(O)COc1ccc(O)c2c1CCC(=O)N2` (centres unmarked) [drawing 12], in the data set with β-adrenergic nerves (setting [2]), the inhibition at 0.0001 mg/kg turned out to be 18.4%, the inhibition at 0.001 mg/kg was determined as 64.6%, the inhibition at 0.01 mg/kg was determined as 94.8% and the inhibition at 0.1 mg/kg was 100%. For the same molecule, in the data set on β-adrenergic nerves (setting [3]), the inhibition at 0.0001 mg/kg turned out to be 5.1%, the inhibition at 0.001 mg/kg came out at 44.5%, the inhibition at 0.01 mg/kg was 97.5% and the inhibition at 0.1 mg/kg stood at 100%.

As for `COc1ccc(OCC(O)CNC(C)(C)C)c2c1NC(=O)CC2` (centres unmarked) [drawing 16], the “Hypotensive Action (Blood Pressure mmHg)” value in data set [1] (0.1 μg/kg i.v.) is 0.0 mmHg; in data set [1] (1.0 μg/kg i.v.), -2.0 mmHg; in data set [1] (10 μg/kg i.v.), -3.5 mmHg; in data set [1] (100 μg/kg i.v.), -5.5 mmHg.
